How the values were obtained:
[1] = tested on: HEK293 cells; experiment: MTT cytotoxicity assay; assay type: cell-based, human
Method: HEK293 (human embryonic kidney cells were obtained from American Type Culture Collection (ATCC, Washington D.C.) and cultured as adherent monolayers in a humidified 5% CO2 atmosphere at 37° C. in Minimum Essential Media supplemented with 10% fetal bovine serum (FBS) and 100 U/mL penicillin/streptomycin. HeLa cells were cultured in Dulbecco's Modified Eagle's Medium (DMEM) supplemented with 10% FBS and 100 U/mL penicillin/streptomycin. Cells were checked for contamination monthly using the PlasmoTest™ mycoplasma detection kit. Ventricular cardiomyocytes were isolated from neonatal rats (NRVMs) as previously described (H. M. Piper et al., Piper H. M. (eds), Cell Culture Techniques in Heart and Vessel Research, Springer Verlag: Berlin, 1990). The isolated myocytes were cultured in Ham's F-10 supplemented with 5%/o fetal bovine serum (FBS) and penicillin/streptomycin (100 U/ml) at 37° C. in a 95% air/5% CO2 humidified atmosphere for four days
Cells were seeded at 4000 cells/well in 100 μL/well in a 96-well plate and incubated for 24 hours. The media was removed and replaced with 200 μL of growth media containing varying concentrations of the complex. After 72 hours of incubation, the media was replaced with MEM containing 1 mg/mL of (4,5-dimethylthiazol-2-yl)-2,5-diepheyltetrazolium bromide (MTT). After four hours incubation, the media was removed and the purple formazan crystals were solubilized using 100 μL of a 8/1 DMSO/glycine buffer (pH 10) mixture. The absorbance at 570 nm was measured using a plate reader.
With the new nitrido-bridged ruthenium compounds C-2 and C-3 prepared, MCU-inhibitory properties of these compounds were evaluated and their activities compared to C-1, the oxo-bridged Ru360 analogue of the conventional art (S. R. Nathan et al., Inorg. Chem. 2017, 56, 3123-3126 and S. R. Nathan et al., J. Vis. Exp. 2017, 56527). The cytotoxicity of the complexes in HEK293 cells was first measured using the colorimetric thiazolyl blue tetrazolium bromide (MTT) assay, as well known in the art. […]

[2] = target: T1, mitochondrial calcium uniporter (MCU) (Homo sapiens, UniProt Q8NE86); experiment: Cytoplasmic and mitochondrial Ca2+ dynamics in intact HeLa cells after histamine; assay type: cell-based; parameters: 30 min) and Rhod-2 AM; endogenous in cells; host or cells: HeLa (intact; some experiments with transfected Ca2+ sensors R-GECO1 and GCamP6-mt, MCU itself not transfected); details: for inhibition of MCU-mediated mCa2+ uptake in intact cells: intact HeLa cells, 50 μM for 30 minutes, histamine 100 μM, Rhod-2 AM and GCamP6-mt; for cytosolic calcium dynamics in intact cells: intact cells stimulated with histamine
T1 sequence (Q8NE86 51-351): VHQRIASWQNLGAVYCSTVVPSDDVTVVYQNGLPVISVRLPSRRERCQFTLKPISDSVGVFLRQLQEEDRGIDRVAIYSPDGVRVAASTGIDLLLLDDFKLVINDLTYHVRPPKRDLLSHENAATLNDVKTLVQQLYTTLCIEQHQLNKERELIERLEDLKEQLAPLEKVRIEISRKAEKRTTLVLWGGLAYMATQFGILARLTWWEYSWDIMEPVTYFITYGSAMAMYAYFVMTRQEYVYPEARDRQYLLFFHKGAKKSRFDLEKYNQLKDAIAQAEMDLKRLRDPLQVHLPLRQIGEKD
T1 sequence (Q9H4I9 48-107 partner limits assumed): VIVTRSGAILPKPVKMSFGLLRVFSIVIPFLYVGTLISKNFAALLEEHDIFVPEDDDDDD
Method: HeLa cells were loaded with Fluo-4-AM (5 μM; 30 min) and Rhod-2 AM (2 μM; 50 min) in extracellular medium as previously described (F. Perocchi et al, Nature 2010, 467, 291-296). Coverslips were mounted in an open perfusion microincubator at 37° C. and imaged. After 1 minute of baseline recording, histamine (100 μM) was added, and confocal images were recorded every 3 seconds at 488 and 561 nm excitation using a 40× oil objective. Images were analyzed and quantified by using ImageJ (NIH).
HeLa cells were transiently transfected with genetically encoded cytosolic and mitochondrial targeted Ca^2+ sensors R-GECO1 and GCamP6-mt plasmids. After 48 hours, the transfected cells were treated with MCU inhibitors (C1, C-2, and C-3; 50 μM). After 1 minute of baseline recording, histamine (100 μM) was added, and the change of R-GECO1 and GCamP6-mt fluorescence was measured with 488-nm and 561-nm excitation on a confocal microscope equipped with a 40× oil objective. Images were analyzed and quantified by using ImageJ (NIH).
Encouraged by the high cell permeability and mitochondrial selectivity of C-2, the capability of this complex to inhibit MCU-mediated mCa^2+ uptake in intact, non-permeabilized cells was investigated Briefly, HeLa cells were loaded with the cytosolic calcium concentration ([Ca^2+]) indicator Fluo-4 AM and the mitochondrial calcium concentration ([…]) indicator Rhod-2 AM in the presence or absence of C-1, C-2, and C-3 (50 μM). Cells were stimulated with the GPCR agonist histamine (100 μM) to rapidly elevate cCa^2+ levels to induce mCa^2+ uptake (Z. Dong et al., Mol. Cell 2017, 65, 1014-1028).
FIGS. 3A and 3B are graphs showing results of cytosolic ([Ca^2+]e, Fluo-4 AM) and mitochondrial ([Ca^2+]m, Rhod-2 AM) calcium transients in HeLa cells after treatment with histamine (100 μM) that were pretreated with or without C-1, C-2, or C-3 (50 μM) for 30 minutes. FIGS. 3C and 3D are graphs showing results of cytosolic ([Ca^2+]e, R-GECO) and mitochondrial ([Ca^2+]m, GCamP6-mt)) calcium transients in HeLa cells after treatment with histamine (100 μM) that were pretreated with or without C-1, C-2, or C-3 (50 μM) for 30 minutes. HeLa cells were co-transfected with R-GECO1 and GCamP6-mt. 48 hours post-transfection. Data are represented as mean±SEM. *p<0.05. n=3-6.

[Ru2(μ-N)(en)4Cl2]Cl3 [C-3]
IC50 [1]: 226 ± 19 µM | inhibition of MCU-mediated mCa2+ uptake in intact cells [2]: did not show appreciable inhibition of mCa^2+ uptake

N.N.N.N.N.N.N.N.[Cl-].[Cl-].[N-3].[Ru+4].[Ru+4] [C-2, [Ru2(μ-N)(NH3)8Cl2]Cl3]
toxicity to human cells [1]: low toxicity to human cells | inhibition of MCU-mediated mCa2+ uptake in intact cells [2]: significant inhibition of MCU-mediated mCa^2+ uptake | inhibition of MCU-mediated mCa2+ uptake in intact cells ([2]; listed as Ru265): most effective MCU-inhibition in non-permeabilized cells | cytosolic calcium dynamics in intact cells [2]: normal cytosolic calcium dynamics | cytosolic calcium dynamics in intact cells ([2]; listed as Ru265): without any effect on intracellular Ca^2+ dynamics

Reference: patent publication US11154569B2, “Ruthenium μ-nitrido complexes and their use as calcium uptake inhibitors” (CORNELL UNIVERSITY, priority 2018, dated 2021)
